# Reference: patent US8546574B2, “Conglomerates of tenatoprazole potassium salts” (priority 2006, dated 2013)
# Assays:
# [1] = Solubility of the racemic potassium salt solvated with ethylene glycol in ethanol/ethylene glycol mixture (80% V-20% V) with potassium hydroxide excess; format: physicochemical; conditions: ethanol/ethylene glycol (80% V-20% V), KOH excess about 0.2 molar equivalent
# [2] = Solubility of the racemic potassium salt solvated with ethanol in ethanolic potassium hydroxide solution; format: physicochemical; conditions: KOH excess about 0.2 molar equivalent
# [3] = cited from earlier work
# [4] = tested on: gastric lesions; conditions: compared with the other known proton-pump inhibitors; cited from earlier work
# [5] = compared with S-tenatoprazole itself and other proton-pump inhibitors; cited from earlier work
# [6] = Solubility of the racemic potassium salt solvated in methanol in methanolic potassium hydroxide solution; format: physicochemical; conditions: KOH excess about 0.2 molar equivalent
# [7] = relative to the other proton-pump inhibitors, for instance omeprazole or lansoprazole
smiles,measurement,setting,value
"COc1ccc2nc([S+]([O-])Cc3ncc(C)c(OC)c3C)[n-]c2n1.[K+] (racemic) [racemic mixture of the potassium salt solvated with ethylene glycol, potassium tenatoprazole ethylene glycolate]",Solubility (mass %),[1]; 28 ° C.,20.3 mass %
same,Solubility (mass %),[1]; 32 ° C.,24 mass %
same,Solubility (mass %),[1]; 34.5 ° C.,25.6 mass %
same,Solubility (mass %),[1]; 39 ° C.,33.5 mass %
"COc1ccc2nc([S+]([O-])Cc3ncc(C)c(OC)c3C)[n-]c2n1.[K+] (racemic) [racemic mixture of the potassium salt solvated with ethanol, potassium tenatoprazole diethanolate]",Solubility (mass %),[2]; 33.9 ° C.,4.24 mass %
same,Solubility (mass %),[2]; 37 ° C.,5.3 mass %
"COc1ccc2nc([S+]([O-])Cc3ncc(C)c(OC)c3C)[nH]c2n1 (stereo not shown) [tenatoprazole, 5-methoxy-2-[[(4-methoxy-3,5-dimethyl-2-pyridyl)methyl]sulfinyl]imidazo[4,5-b]pyridine]",duration of action,[3]; [7],markedly longer duration of action
same,plasmatic half-life,[3]; [7],about seven times greater
same,level of relief of the symptoms and of cicatrization of gastric lesions,[4],greater level of relief of the symptoms and of cicatrization of gastric lesions
COc1ccc2[nH]c([S+]([O-])Cc3ncc(C)c(OC)c3C)nc2n1.O.[Na] (stereo not shown) [S-tenatoprazole sodium salt monohydrate],solubility,[5],excellent solubility
COc1ccc2[nH]c([S@@+]([O-])Cc3ncc(C)c(OC)c3C)nc2n1 [S-tenatoprazole],pharmacokinetic properties,[3]; compared with the racemic mixture and the enantiomer of R configuration,significantly different
"COc1ccc2nc([S+]([O-])Cc3ncc(C)c(OC)c3C)[n-]c2n1.[K+] (racemic) [racemic mixture of the potassium salt solvated in methanol, potassium tenatoprazole dimethanolate]",Solubility (mass %),[6]; 30 ° C.,4.4 mass %
same,Solubility (mass %),[6]; 38 ° C.,5.2 mass %
same,Solubility (mass %),[6]; 40 ° C.,6.5 mass %
same,Solubility (mass %),[6]; 42 ° C.,7.7 mass %
same,Solubility (mass %),[6]; 56 ° C.,12.2 mass %
